Measurements from patent publication EP0714404B1, “ANTI-INFLAMMATORY PEPTIDES” (CURATIVE TECHNOLOGIES, INC., priority 1993, dated 1995).
Read-outs that look alike come from different tables or passages of the source. Residues, ends and D or L forms follow the SMILES beside them.

Assays:
[1] = system: prostaglandin E2 (PGE2); assay: carrageenan peritonitis, PGE2 content of peritoneal lavage fluid; type: in vivo, Mice; conditions: 60 mg/kg/day; 24 hr post-challenge
Description: Mice (C57BL/6UAF, females, 12 weeks old) were implanted with Alzet mini pumps set to deliver 60 mg CT-112/kg/day. Six days post-implantation, the mice were challenged with an intraperitoneal injection of 0.3 ml of carrageenan in PBS (10 mg/ml). The peritoneal cavity was lavaged with 15 ml of Hank's Balanced Salt Solution (Ca^2+- and Mg^2+-free) at 24, 48 and 72 hr post-challenge. The lavage fluid was centrifuged (500 g, 5 min), fixed with LeukoStat fixative and stained with LeukoStat staining solution. The slides were analyzed under a microscope for the different types of inflammatory cells, such as macrophages, lymphocytes and neutrophils. At the 48-hr time point, 5 control mice were also lavaged.
In a separate study, the peritoneal lavage fluid was analyzed for total leukotriene B4 (LTB4) and prostaglandin E2 (PGE2) content at 24 hr post-challenge (Griswold et al., 1991, Biochem. Pharmacol. 42(4):825-831).

[2] = system: collagen-induced arthritis; type: in vivo, Mice
Description: Mice (DBA/1, 10-12 weeks old, Jackson Laboratories) were randomly assigned to one of 3 groups of […]. CT-112 (SEQ. ID NO: 1) was prepared for injection by dissolving in sterile PBS. CT-112 (SEQ. ID NO: 1) was administered daily according to the following schedule: • a) Control animals (0.1 ml of sterile PBS) (7 mice); • b) Low dose CT-112 (0.1 ml sterile PBS containing 0.25 mg CT-112 at 10 mg/kg) (8 mice); and • c) High dose CT-112 (0.1 ml sterile PBS containing 2.5 mg of CT-112 at 100 mg/kg) (8 mice). Three days after initial dosing with CT-112 (SEQ. ID NO: 1), all mice were injected intradermally at the base of the tail with 100 µg of bovine type-II collagen in Freund's complete adjuvant. Mice were monitored daily for the onset of disease, and weighed twice weekly with overall health status noted. Arthritis-affected animals were clinically assessed 5 times per week until 10 weeks post-immunization. Paw measurements were taken 3 times per week. Mice lacking signs of arthritis 10 weeks post-immunization were considered disease-free. All mice were pre-bled prior to the start of the trial, subsequently again at 2 and 4 weeks post-immunization, again at the onset of CIA, and finally at the termination of the study. Sera were separated and stored at -80°C. ELISA assays were performed to determine anti-collagen antibody concentrations. Spleen and lymph nodes were removed at sacrifice, and single cell suspensions prepared therefrom. Mitogen responses to Con A and LPS, as well as antigen-specific responses to type-II collagen, were determined. Appropriate statistical comparisons (Chi square, Student's T-test and non-parametric median comparisons) were performed using SPSS/PC software to assess the influence of CT-112 (SEQ. ID NO: 1) at both low and high doses on the incidence, onset, severity and progression of collagen-induced arthritis, the antibody response to collagen, T-cell and B-cell mitogen responses, and T-cell specific responses to type-II collagen.

With CC(C)[C@H](NC(=O)[C@H](CCC(N)=O)NC(=O)[C@H](CO)NC(=O)[C@@H](NC(=O)[C@@H](N)[C@@H](C)O)[C@@H](C)O)C(=O)N[C@@H](CCCNC(=N)N)C(=O)N1CCC[C@H]1C(=O)N[C@@H](CCCNC(=N)N)C(=O)O [CT-112, Thr-Thr-Ser-Gln-Val-Arg-Pro-Arg] (H-TTSQVRPR-OH) the PGE2 [1] was 13.1 ± 6.9(5) pg in peritoneal lavage, the “Antibody reduction (anti-collagen antibody titer in mouse serum)” value ([2]; 4 wks post-immunization, high dose group, p=0.028) was “statistically significant” and the “effects on synovitis and pannus” value ([2]; both high and low doses) was “not significant”. The “disease-induced joint erosion (histopathology)” value ([2]; both high and low doses, FIGURE 13) was “reducing”, the “disease-induced loss of joint architecture (histopathology)” value ([2]; both high and low doses, p ≤ 0.05, FIGURE 13) was “significantly reducing” and the “Spleen cell response to Con A and to LPS” value ([2]; cells from treated mice) was “neither immunosuppression nor immunoactivation”. The “final incidence of CIA” value ([2]; high dose, 100 mg/kg daily) was 50%, the onset of arthritis ([2]; low (10 mg/kg) and high (100 mg/kg) daily doses, compared to control mice) was “somewhat retarded” and the “antibody titers at the conclusion of the trial” value ([2]; low dose group vs control mice) was “significantly higher”. The “final incidence of CIA” value ([2]; low dose, 10 mg/kg daily) was 62.5%, the “involved paws characterized as in remission at the conclusion of the trial” value ([2]; low dose, 10 mg/kg daily) was 25% and the “progression of arthritis to paws” value ([2]; low dose, 10 mg/kg daily, p=0.035 vs control) was “significantly fewer paws”. The Maximum paw swelling ([2]; mouse, in vivo) was “not influenced”, the weight gain ([2]; mouse, in vivo) was “gained weight at the same rate” and the “Cellular responses to mitogens and antigen (type-II collagen) in lymph node cells” value ([2]; treated mice vs control animals) was “similar”.
